Experimental findings from patent publication US9175037B2, “Neuromedin U derivative” (Takeda Pharmaceutical Company Limited, priority 2009, dated 2015) are described below.

The target of assay [1] is T1, Human FM3 (Homo sapiens, UniProt Q9HB89).
T1 construct: expressed in transfected cells; host or cells: CHO (dhfr-) cells; membrane fraction
T1 sequence (Q9HB89 1-426): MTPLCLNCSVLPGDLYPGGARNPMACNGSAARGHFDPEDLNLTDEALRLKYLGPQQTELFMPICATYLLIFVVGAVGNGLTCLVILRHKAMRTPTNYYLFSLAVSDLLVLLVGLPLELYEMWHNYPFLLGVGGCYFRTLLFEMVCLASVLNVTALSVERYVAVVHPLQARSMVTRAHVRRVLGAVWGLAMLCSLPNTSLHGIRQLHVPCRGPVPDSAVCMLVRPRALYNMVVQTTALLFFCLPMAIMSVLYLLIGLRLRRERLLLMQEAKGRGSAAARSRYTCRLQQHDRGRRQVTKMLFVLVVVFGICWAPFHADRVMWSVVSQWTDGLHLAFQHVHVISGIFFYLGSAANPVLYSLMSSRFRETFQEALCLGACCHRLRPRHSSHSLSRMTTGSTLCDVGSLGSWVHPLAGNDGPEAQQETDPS
In words: Receptor binding test: inhibition of 125I-NMU8 binding to FM3 membrane fraction. The note with it: ratio of IC50 values when the affinity of NMU-8 was 1; 125I-NMU8 135 pM, CHO cell membrane fraction.

For assay [2], the target named is T2, human TGR1 (Homo sapiens, UniProt Q9GZQ4).
T2 construct: expressed in transfected cells; host or cells: CHO (dhfr-) cells; membrane fraction
T2 sequence (Q9GZQ4 whole entry): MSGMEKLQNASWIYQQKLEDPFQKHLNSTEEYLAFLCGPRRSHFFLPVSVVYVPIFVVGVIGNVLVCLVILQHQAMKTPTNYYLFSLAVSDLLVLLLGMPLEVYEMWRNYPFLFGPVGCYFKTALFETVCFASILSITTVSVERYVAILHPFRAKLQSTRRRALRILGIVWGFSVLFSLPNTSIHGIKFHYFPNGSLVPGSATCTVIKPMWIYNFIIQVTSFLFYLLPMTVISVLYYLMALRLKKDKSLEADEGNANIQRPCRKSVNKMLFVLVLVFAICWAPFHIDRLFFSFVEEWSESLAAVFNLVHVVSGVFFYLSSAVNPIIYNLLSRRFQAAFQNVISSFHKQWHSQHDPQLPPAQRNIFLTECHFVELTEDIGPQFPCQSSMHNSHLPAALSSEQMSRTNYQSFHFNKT
In words: Receptor binding test: inhibition of 125I-NMU8 binding to TGR1 membrane fraction. The note with it: ratio of IC50 values when the affinity of NMU-8 was 1; 125I-NMU8 135 pM, CHO cell membrane fraction. On the procedure:
CHO cells expressing Human FM3 (dhfr-) and CHO cells expressing human TGR1 (dhfr-) were cultured in 10% dialyzed FBS-containing MEMα (Invitrogen) medium under conditions of 5% carbon dioxide at 37° C. The adherent cells were detached with 10 mL of 0.1 mM EDTA-containing D-PBS (Invitrogen) and centrifuged for 10 minutes at 1,000 rpm at 4° C., thereby collecting the cells. 15 mL of homogenized buffer (10 mM NaHCO3 (pH 7.4), 5 mM EDTA, protease inhibitor=0.5 mM PMSF, 10 μg/mL Pepstatin A, 20 μg/mL Leupeptin, and 4 μg/mL E-64) was added to the obtained cell pellets, the cellular membrane was disrupted using a polytron homogenizer (Kinematica GmbH), centrifugation was conducted for 10 minutes at 1,000 g at 4° C., and the supernatant was collected. This process was further repeated twice, and ultracentrifugation was conducted for 60 minutes at 30,000 rpm at 4° C. Thereafter, 8 mL of homogenized buffer was added to the pellets and suspended homogeneously to prepare a membrane fraction. The protein concentration of the FM3-expressing CHO cellular membrane fraction was 1.2 mg/mL, and the protein concentration of the TGR1-expressing CHO cellular membrane fraction was 1.1 mg/mL.
The affinity of the NMU-8 derivatives and PEG conjugates shown in Table 2 (Table 2-1 and Table 2-2) with respect to each receptor was evaluated based on the inhibition of ^125I-NMU8 labeled ligand binding to the FM3 membrane fraction or to the TGR1 membrane fraction. Specifically, each of the NMU derivatives and PEG conjugates was dissolved in DMSO so as to prepare 2 μL of each dilution series of the NMU derivatives and PEG conjugates. Then, 100 μL of membrane fraction solutions diluted with a reaction buffer (50 mM HEPES, 1 mM EDTA protease inhibitor (0.5 mM PMSF), 10 μg/mL Pepstatin A, 20 μg/mL Leupeptin, and 4 μg/mL E-64, pH 6.8, 0.1% BSA) was added thereto, followed by further addition of 100 μL of the labeled ligand (final concentration: 135 pM) similarly diluted with the reaction buffer. The resulting product was thoroughly mixed, and then a reaction was carried out at 25° C. for 70 minutes. In accordance with the above-described procedure, the binding amount of the labeled ligand remaining in the filter was measured using a top count (PerkinElmer) by a liquid scintillation method, and the IC50 values were calculated using a Graph Pad Prism (FIG. 1 (FM3 receptor binding), FIG. 2 (TGR1 receptor binding), and Table 2).

Assay [3] in a line: Anorectic activity via peripheral administration. The assay is classed as in vivo.

Non-standard residues stand in square brackets, D forms with d. No end group written: not given here. *: point of attachment. Acetyl(2-(piperazin-1-yl)) = O=C(CN1CCNCC1)*; PEG20k = methoxypolyethylene glycol 20k; NMeA = CN[C@@H](C)C(=O)O; βAla = NCCC(=O)O Where only a bound is given, the exact number is not on record here.

Consider β-Ala0,Gln3-NMU-8 [Compound 2], for which the “FM3 Receptor Binding IC50 ratio” value in assay [1] is 0.31. In addition, the “TGR1 Receptor Binding IC50 ratio” value in assay [2] is listed as 3.9.

For the substance “PEG20k-NpipAc-Trp2,Ala6-NMU8 ({PEG20k-Acetyl(2-(piperazin-1-yl))}-YWLFRARN-NH2) [Compound T]”, in assay [1], the “FM3 Receptor Binding IC50 ratio” value is listed as greater than 10000.

As for β-Ala0,Trp2,NMeAla6-NMU-8 [Compound 17], the “FM3 Receptor Binding IC50 ratio” value in assay [1] is listed as 92. In addition, the “TGR1 Receptor Binding IC50 ratio” value in assay [2] was found to be 1.9.

Take β-Ala0,Val3-NMU-8 [Compound 4]: the “FM3 Receptor Binding IC50 ratio” value in assay [1] turned out to be 0.43. For the same substance, the “TGR1 Receptor Binding IC50 ratio” value in assay [2] is recorded as 0.37.

For “PEG30k-NH-β-Ala0,Cha3-NMU-8 [Compound F]”, the “FM3 Receptor Binding IC50 ratio” value in assay [1] worked out at 1.3. Besides, the “TGR1 Receptor Binding IC50 ratio” value in assay [2] stood at 11.

As for “NpipAc0,Phe1,Trp2,Ala6-NMU-8 [Compound 11]”, the “FM3 Receptor Binding IC50 ratio” value in assay [1] was 280. For the same substance, the “TGR1 Receptor Binding IC50 ratio” value in assay [2] was 0.19.

As for β-Ala0,Asp8-NMU-8 [Compound 12], in assay [1], the “FM3 Receptor Binding IC50 ratio” value was 2.4. Further, in assay [2], the “TGR1 Receptor Binding IC50 ratio” value is recorded as 2.0.

For “PEG20k-NH-β-Ala0,NMeLeu3,NMeArg7-NMU-8 [Compound O]”, the “FM3 Receptor Binding IC50 ratio” value in assay [1] is listed as 75. The “TGR1 Receptor Binding IC50 ratio” value in assay [2] amounted to 170.

For the substance β-Ala0,NMeArg5-NMU-8 [Compound 13], the “FM3 Receptor Binding IC50 ratio” value in assay [1] stood at 0.46. Further, in assay [2], the “TGR1 Receptor Binding IC50 ratio” value is 1.1.

Consider “PEG30k-NH-β-Ala0,Gln3-NMU-8 [Compound B]”, for which the “FM3 Receptor Binding IC50 ratio” value in assay [1] is reported as 1.8. Also, the “TGR1 Receptor Binding IC50 ratio” value in assay [2] turned out to be 7.3.

On to “PEG30k-NH-β-Ala0,Arg1-NMU-8 [Compound G]”, for which, in assay [1], the “FM3 Receptor Binding IC50 ratio” value was 1.5. Moreover, the “TGR1 Receptor Binding IC50 ratio” value in assay [2] came to 8.5.

On to NpipAc0,Glu2,Ala6-NMU-8 [Compound 19], for which the “FM3 Receptor Binding IC50 ratio” value in assay [1] turned out to be 24000. Also, in assay [2], the “TGR1 Receptor Binding IC50 ratio” value turned out to be 25.

With β-Ala0,Arg3-NMU-8 [Compound 3], the “FM3 Receptor Binding IC50 ratio” value in assay [1] stood at 0.07. In addition, the “TGR1 Receptor Binding IC50 ratio” value in assay [2] worked out at 0.38.

For “PEG30k-NH-β-Ala0,Arg(Me) 7-NMU-8 [Compound N]”, in assay [1], the “FM3 Receptor Binding IC50 ratio” value is on record as 290. For the same substance, the “TGR1 Receptor Binding IC50 ratio” value in assay [2] is on record as 63.

On to “NpipAc0,Nal(2)2,NMeAla6-NMU-8 [Compound 22]”, for which the “FM3 Receptor Binding IC50 ratio” value in assay [1] is 99. The “TGR1 Receptor Binding IC50 ratio” value in assay [2] was 1.7.

“PEG30k-NH-β-Ala0,Val3-NMU-8 [Compound D]”: in assay [1], the “FM3 Receptor Binding IC50 ratio” value was found to be 5.3. Also, the “TGR1 Receptor Binding IC50 ratio” value in assay [2] is 2.2.

For “β-Ala0,NMeLeu3,NMeArg7-NMU-8 [Compound 15]”, in assay [1], the “FM3 Receptor Binding IC50 ratio” value worked out at 8.6. Further, the “TGR1 Receptor Binding IC50 ratio” value in assay [2] amounted to 19.

With β-Ala0,Pro1-NMU-8 [Compound 8], the “FM3 Receptor Binding IC50 ratio” value in assay [1] is 0.59. Besides, in assay [2], the “TGR1 Receptor Binding IC50 ratio” value was determined as 3.8.

Take “PEG20k-NH-β-Ala0,NMeTyr1,NMeLeu3,NMeArg5-NMU-8 [Compound P]”: the “FM3 Receptor Binding IC50 ratio” value in assay [1] turned out to be 83. Also, the “TGR1 Receptor Binding IC50 ratio” value in assay [2] worked out at 240.

With “PEG30k-NH-β-Ala0,Asp8-NMU-8 [Compound L]”, the “FM3 Receptor Binding IC50 ratio” value in assay [1] is 150. Moreover, the “TGR1 Receptor Binding IC50 ratio” value in assay [2] came out at 34.

In the case of “PEG30k-NH-β-Ala0,Gln5-NMU-8 [Compound A]”, the “FM3 Receptor Binding IC50 ratio” value in assay [1] is given as 160. For the same substance, the “TGR1 Receptor Binding IC50 ratio” value in assay [2] amounted to 9.6.

Turning to “PEG20k-NH-β-Ala0,Glu2,NMeAla6-NMU-8 ({PEG20k-βAla}-YELFR[NMeA]RN-NH2) [Compound R]”, the “FM3 Receptor Binding IC50 ratio” value in assay [1] was greater than 7300.

β-Ala0,Arg1-NMU-8 [Compound 7]: the “FM3 Receptor Binding IC50 ratio” value in assay [1] was 0.42. Moreover, in assay [2], the “TGR1 Receptor Binding IC50 ratio” value is on record as 3.7.

“PEG20k-NpipAc-Glu2,Ala6-NMU8 ({PEG20k-Acetyl(2-(piperazin-1-yl))}-YELFRARN-NH2) [Compound S]”: the “FM3 Receptor Binding IC50 ratio” value in assay [1] is given as greater than 10000.

Take NpipAc0,Trp2,Ala6-NMU-8 [Compound 20]: in assay [1], the “FM3 Receptor Binding IC50 ratio” value turned out to be 900. Further, in assay [2], the “TGR1 Receptor Binding IC50 ratio” value is 1.9.

On to “PEG30k-NH-β-Ala0,Arg3-NMU-8 [Compound C]”, for which the “FM3 Receptor Binding IC50 ratio” value in assay [1] stood at 1.7. Also, the “TGR1 Receptor Binding IC50 ratio” value in assay [2] is recorded as 2.6.

For β-Ala0,Arg(Me)7-NMU-8 [Compound 14], the “FM3 Receptor Binding IC50 ratio” value in assay [1] was 6.3. For the same substance, the “TGR1 Receptor Binding IC50 ratio” value in assay [2] stood at 3.6.

In the case of β-Ala0,Gln5-NMU-8 [Compound 1], the “FM3 Receptor Binding IC50 ratio” value in assay [1] is on record as 15. The “TGR1 Receptor Binding IC50 ratio” value in assay [2] came to 3.4.

As to “PEG20k-NH-β-Ala0,Trp2,NMeAla6-NMU-8 [Compound Q]”, the “FM3 Receptor Binding IC50 ratio” value in assay [1] amounted to 1600. Moreover, in assay [2], the “TGR1 Receptor Binding IC50 ratio” value is 47.

On to β-Ala0,Cha3-NMU-8 [Compound 6], for which the “FM3 Receptor Binding IC50 ratio” value in assay [1] came to 0.55. Also, the “TGR1 Receptor Binding IC50 ratio” value in assay [2] is given as 9.9.

Take “PEG20k-NPipAc-Phe1, Trp2,Ala6-NMU-8 ({PEG20k-Acetyl(2-(piperazin-1-yl))}-FWLFRARN-NH2) [Compound K]”: the “FM3 Receptor Binding IC50 ratio” value in assay [1] worked out at 11000.

Consider “PEG20k-NpipAc-Glu2,NMeAla6-NMU8 ({PEG20k-Acetyl(2-(piperazin-1-yl))}-YELFR[NMeA]RN-NH2) [Compound U]”, for which the “FM3 Receptor Binding IC50 ratio” value in assay [1] was greater than 10000.

Regarding β-Ala0,Glu2,NMeAla6-NMU-8 [Compound 18], the “FM3 Receptor Binding IC50 ratio” value in assay [1] was 26000. Further, the “TGR1 Receptor Binding IC50 ratio” value in assay [2] stood at 31.

Consider “NpipAc0,Glu2,NMeAla6-NMU-8 [Compound 21]”, for which the “FM3 Receptor Binding IC50 ratio” value in assay [1] is 6500. Besides, the “TGR1 Receptor Binding IC50 ratio” value in assay [2] is given as 5.5.

Regarding “PEG30k-NH-β-Ala0,Tyr2-NMU-8 [Compound E]”, in assay [1], the “FM3 Receptor Binding IC50 ratio” value is given as 8.1. Besides, the “TGR1 Receptor Binding IC50 ratio” value in assay [2] was 1.7.

Regarding “NMU-23: Rat NMU consists of 23 amino acid residues, and is named NMU-23 (YKVNEYQGPVAPSGGFFLFRPRN; ends and bridges not checked; UniProt P12760 144-166, looked up)”, in assay [3], the anorectic activity entry is recorded as “induces an anorectic activity”.

Regarding “PEG30k-NH-β-Ala0,NMeArg5-NMU-8 [Compound M]”, the “FM3 Receptor Binding IC50 ratio” value in assay [1] stood at 9.0. Also, in assay [2], the “TGR1 Receptor Binding IC50 ratio” value worked out at 29.

Consider “Tyr-Phe-Leu-Phe-Arg-Pro-Arg-Asn-NH2 [NMU-8]”, for which the anorectic activity entry in assay [3] was “does not induce an anorectic activity”.

For “2-(piperazin-1-yl)acetyl-Arg3-NMU8 [Compound 10]”, in assay [1], the “FM3 Receptor Binding IC50 ratio” value was determined as 0.27. Besides, the “TGR1 Receptor Binding IC50 ratio” value in assay [2] is on record as 0.66.

For the substance “PEG30k-NH-β-Ala0,Pro1-NMU-8 [Compound H]”, in assay [1], the “FM3 Receptor Binding IC50 ratio” value turned out to be 9.4. Moreover, in assay [2], the “TGR1 Receptor Binding IC50 ratio” value came out at 21.
